Patent publication US6245917A, “Crystalline sodium phenytoin monohydrate” (Warner-Lambert Company, priority 1999, dated 2001)

Experiment: Repeated water uptake study with solvent-free SPM (dichloromethane preparation)
Format: physicochemical
Description: Study of weight change under controlled humidity conditions, samples were placed in open vials, which were placed in closed controlled-humidity jars. Relative humidities were controlled using saturated aqueous salt solutions: 58% RH, NaBr; 75% RH, (NH4)2 SO4; 76%, sodium acetate; 84% RH, KBr.
A possible cause of the observed weight loss is that some reaction solvent (toluene in this case) from the preparation of SPM remained on the solid and evaporated in the humidity jars. To test this theory, it was decided to prepare SPM, show it to be solvent-free, and repeat the water uptake studies. Dichloromethane was chosen as the organic solvent for the preparation rather than toluene because its lower boiling point should allow it to be removed from the solid more easily and completely. SPM was made by stirring a slurry of SPA and one equivalent of water in dichloromethane for 2 days, then isolation by filtration and air-drying of the solid SPM.
The remainder of the SPM sample was allowed to dry in an open jar under ambient conditions for about 1 week. It was then characterized by XRPD elemental analysis, and Karl Fischer (KF) analysis. The sample appears to be pure SPM containing very little, if any, residual solvent.
Both SPM and SPA increased in weight about 20% when equilibrium was reached (constant weight) at each humidity utilized. The samples were analyzed by XRPD after completion of the water uptake experiments. […] The nature of this form has not been determined.

## O=C1NC(=O)C(c2ccccc2)(c2ccccc2)N1 [SPA, sodium phenytoin anhydrate, reference compound]
58% RH
  Percent change based on average of final two weights: +19%
58% RH, day 0 (starting weight)
  sample weight: 1.5087 g
58% RH, day 1
  change in starting weight: +0.0263 g
  sample weight: 1.5350 g
58% RH, day 2
  change in starting weight: +0.0510 g
  sample weight: 1.5597 g
58% RH, day 3
  change in starting weight: +0.0793 g
  sample weight: 1.5880 g
58% RH, day 4
  change in starting weight: +0.1011 g
  sample weight: 1.6098 g
58% RH, day 5
  change in starting weight: +0.1111 g
  sample weight: 1.6198 g
58% RH, day 6
  change in starting weight: +0.1208 g
  sample weight: 1.6295 g
58% RH, day 7
  change in starting weight: +0.1333 g
  sample weight: 1.6420 g
58% RH, day 8
  change in starting weight: 0.1487 g
58% RH, day 10
  change in starting weight: +0.1797 g
58% RH, day 12
  change in starting weight: +0.2166 g
  sample weight: 1.7253 g
58% RH, day 13
  change in starting weight: +0.2250 g
  sample weight: 1.7337 g
58% RH, day 14
  change in starting weight: +0.2338 g
  sample weight: 1.7425 g
58% RH, day 15
  change in starting weight: +0.2445 g
  sample weight: 1.7532 g
58% RH, day 16
  change in starting weight: +0.2531 g
  sample weight: 1.7618 g
58% RH, day 17
  change in starting weight: +0.2593 g
  sample weight: 1.7680 g
58% RH, day 21
  change in starting weight: +0.2773 g
  sample weight: 1.7860 g
58% RH, day 23
  change in starting weight: +0.2818 g
  sample weight: 1.7905 g
58% RH, day 26
  change in starting weight: +0.2818 g
75% RH
  Percent change based on average of final two weights: +21%
75% RH, day 0 (starting weight)
  sample weight: 1.5037 g
75% RH, day 1
  change in starting weight: +0.0581 g
  sample weight: 1.5618 g
75% RH, day 2
  change in starting weight: +0.1166 g
  sample weight: 1.6203 g
75% RH, day 3
  change in starting weight: +0.1625 g
  sample weight: 1.6662 g
75% RH, day 4
  change in starting weight: +0.2103 g
  sample weight: 1.7140 g
75% RH, day 5
  change in starting weight: +0.2501 g
  sample weight: 1.7538 g
75% RH, day 6
  change in starting weight: +0.2825 g
  sample weight: 1.7862 g
75% RH, day 7
  change in starting weight: +0.3054 g
  sample weight: 1.8091 g
75% RH, day 8
  change in starting weight: +0.3152 g
75% RH, day 10
  change in starting weight: +0.3165 g
75% RH, day 12
  change in starting weight: +0.3197 g
  sample weight: 1.8234 g
75% RH, day 13
  change in starting weight: +0.3171 g
  sample weight: 1.8208 g
75% RH, day 14
  change in starting weight: +0.3152 g
  sample weight: 1.8189 g
75% RH, day 15
  change in starting weight: +0.3146 g
  sample weight: 1.8183 g
75% RH, day 16
  change in starting weight: +0.3139 g
  sample weight: 1.8176 g
75% RH, day 17
  change in starting weight: +0.3117 g
  sample weight: 1.8154 g
84% RH
  Percent change based on average of final two weights: +22%
84% RH, day 0 (starting weight)
  sample weight: 1.5023 g
84% RH, day 1
  change in starting weight: +0.0712 g
  sample weight: 1.5735 g
84% RH, day 2
  change in starting weight: +0.1330 g
  sample weight: 1.6353 g
84% RH, day 3
  change in starting weight: +0.1952 g
  sample weight: 1.6975 g
84% RH, day 4
  change in starting weight: +0.2498 g
  sample weight: 1.7521 g
84% RH, day 5
  change in starting weight: +0.2949 g
  sample weight: 1.7972 g
84% RH, day 6
  change in starting weight: +0.3169 g
  sample weight: 1.8192 g
84% RH, day 7
  change in starting weight: +0.3275 g
  sample weight: 1.8298 g
84% RH, day 8
  change in starting weight: +0.3301 g
84% RH, day 12
  change in starting weight: +0.3322 g
  sample weight: 1.8345 g
84% RH, day 13
  change in starting weight: +0.3288 g
  sample weight: 1.8311 g
84% RH, day 14
  change in starting weight: +0.3260 g
  sample weight: 1.8283 g
84% RH, day 15
  change in starting weight: +0.3255 g
  sample weight: 1.8278 g
84% RH, day 16
  change in starting weight: +0.3249 g
  sample weight: 1.8272 g
84% RH, day 17
  change in starting weight: +0.3225 g
  sample weight: 1.8248 g
